Like-named read-outs stand apart in the source and are kept apart here.
Assays:
HCT116 WT cells = assay: HCT116 WT cell line proliferation (CellTiter-Glo cell viability, 6 days); assay type: cell-based; conditions: HCT116 WT (parent) cells, 6 days of treatment, CellTiter-Glo cell viability, read-out: HCT-116 WT IC50
Method in brief: (§1)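 Viability by CellTiter-Glo after 6 days' drug exposure in wild-type HCT116 and its MTAP-null knockout, with DMSO-only control. Dosing used either 1:3 steps (top 1 or 10 μM) or 22 points in 1:2 steps (top 10 or 50 μM). IC50 taken where the fitted curve crosses 50% of control.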

HCT116 MTAP null cells = assay: HCT116 MTAP null cell line proliferation (CellTiter-Glo cell viability, 6 days); assay type: cell-based; conditions: HCT116 MTAP null cells, 6 days of treatment, CellTiter-Glo cell viability, read-out: HCT-116 MTAP null IC50
Method in brief: as §1

| IC50 (HCT116 WT cells; Homo sapiens, HCT-116, 144 h) [nM] | IC50 (HCT116 MTAP null cells; HCT116-MTAP null, 144 h) [nM] | IC50 (HCT116 WT cells) [nM] | IC50 (HCT116 MTAP null cells) [nM] | Compound |
| --- | --- | --- | --- | --- |
| 6740 | 148 | – | – | C[C@H]1COC[C@@H](c2ccc(Cl)nc2)N1C(=O)c1cc2c3c(c(N)nc2cn1)COC3 (racemic) [Example 311, (4-amino-1,3-dihydrofuro[3,4-c][1,7]naphthyridin-8-yl)((3R,5S)-3-(6-chloro-3-pyridinyl)-5-methyl-4-morpholinyl)methanone and (4-amino-1,3-dihydrofuro[3,4-c][1,7]naphthyridin-8-yl)((3S,5R)-3-(6-chloro-3-pyridinyl)-5-methyl-4-morpholinyl)methanone] |
| > 10000 | 656 | – | – | Nc1nc2ccc(C(=O)N3CCOC[C@@H]3c3ccc(OC(F)(F)F)cc3)cc2c2c1COCC2 [Example 484, (5-amino-2,4-dihydro-1H-pyrano[3,4-c]quinolin-9-yl)-[(3S)-3-[4-(trifluoromethoxy)phenyl]morpholin-4-yl]methanone] |
| 707 | 22 | – | – | Cn1ncc2c(N)nc3cnc(C(=O)N4CCOC[C@@H]4c4ccc(C(F)(F)F)cc4)cc3c21 [Example 371, (4-amino-1-methyl-1H-pyrazolo[4,3-c][1,7]naphthyridin-8-yl)((3S)-3-(4-(trifluoromethyl)phenyl)-4-morpholinyl)methanone] |
| 706 | 27 | – | – | C[C@H]1COC[C@@H](c2ccc(C(F)(F)F)cc2F)N1C(=O)c1cc2c3c(c(N)nc2cn1)COC3 (racemic) [Example 334, (4-amino-1,3-dihydrofuro[3,4-c][1,7]naphthyridin-8-yl)((3R,5S)-3-(2-fluoro-4-(trifluoromethyl)phenyl)-5-methyl-4-morpholinyl)methanone and (4-amino-1,3-dihydrofuro[3,4-c][1,7]naphthyridin-8-yl)((3S,5R)-3-(2-fluoro-4-(trifluoromethyl)phenyl)-5-methyl-4-morpholinyl)methanone] |
| – | – | 7250 | 193 | Nc1nc2cnc(C(=O)N3CCOCC3c3ccc(C(F)(F)F)cc3F)cc2c2c1COC2 (racemic) [Example 387, (4-amino-1,3-dihydrofuro[3,4-c][1,7]naphthyridin-8-yl)((3R)-3-(2-fluoro-4-(trifluoromethyl)phenyl)-4-morpholinyl)methanone and (4-amino-1,3-dihydrofuro[3,4-c][1,7]naphthyridin-8-yl)((3S)-3-(2-fluoro-4-(trifluoromethyl)phenyl)-4-morpholinyl)methanone] |
| 2500 | 55 | – | – | CCOc1ccc([C@H]2COC[C@@H](C)N2C(=O)c2ccc3nc(N)c4c(c3c2)CO[C@@H]4C)nn1 [Example 537, ((3R)-4-amino-3-methyl-1,3-dihydrofuro[3,4-c]quinolin-8-yl)((3S,5R)-3-(6-ethoxy-3-pyridazinyl)-5-methyl-4-morpholinyl)methanone] |
| 8400 | 74 | – | – | Cn1ncc2c(N)nc3cc(F)c(C(=O)N4CC(c5ccc(C(F)(F)F)cn5)C4)cc3c21 [Example 428, (4-amino-7-fluoro-1-methyl-1H-pyrazolo[4,3-c]quinolin-8-yl)(3-(5-(trifluoromethyl)-2-pyridinyl)-1-azetidinyl)methanone] |
| 497 | 20 | – | – | C[C@H]1COC[C@@H](c2ccc(C(F)(F)F)cn2)N1C(=O)c1cc2c3c(c(N)nc2cn1)COC3 (racemic) [Example 339, (4-amino-1,3-dihydrofuro[3,4-c][1,7]naphthyridin-8-yl)((3R,5S)-3-methyl-5-(5-(trifluoromethyl)-2-pyridinyl)-4-morpholinyl)methanone and (4-amino-1,3-dihydrofuro[3,4-c][1,7]naphthyridin-8-yl)((3S,5R)-3-methyl-5-(5-(trifluoromethyl)-2-pyridinyl)-4-morpholinyl)methanone] |
| 13300 | 866 | – | – | C[C@H]1OCc2c1c(N)nc1ccc(C(=O)N3CC(c4ccc(Cl)cc4)CC3C3CC3)cc21 (stereo partly drawn) [Example 396, ((3R)-4-amino-3-methyl-1,3-dihydrofuro[3,4-c]quinolin-8-yl)(4-(4-chlorophenyl)-2-cyclopropylpyrrolidin-1-yl)methanone] |
| 2800 | 56 | – | – | Cc1cc2nc(N)c3c(cnn3C)c2cc1C(=O)N1CCOC[C@@H]1c1ccc(C(F)(F)F)cc1 [Example 414, (4-amino-3,7-dimethyl-3H-pyrazolo[3,4-c]quinolin-8-yl)((3S)-3-(4-(trifluoromethyl)phenyl)-4-morpholinyl)methanone] |
| 3150 | 73 | – | – | C[C@@H]1COC[C@H](c2ccc(OC3CC3)nn2)N1C(=O)c1cc2c3c(c(N)nc2cn1)COC3 [Example 550, (4-amino-1,3-dihydrofuro[3,4-c][1,7]naphthyridin-8-yl)((3S,5R)-3-(6-(cyclopropyloxy)-3-pyridazinyl)-5-methyl-4-morpholinyl)methanone] |
| 2480 | 45 | – | – | C[C@@H]1COC[C@H](c2ccc(C(F)(F)F)cc2)N1C(=O)c1ccc2nc(N)c3c(cnn3C)c2c1 [Example 533, (4-amino-3-methyl-3H-pyrazolo[3,4-c]quinolin-8-yl)((3R,5S)-3-methyl-5-(4-(trifluoromethyl)phenyl)-4-morpholinyl)methanone] |
| 444 | 15 | – | – | Cn1ncc2c(N)nc3cnc(C(=O)N4CCOC[C@@H]4c4ccc(C(F)(F)C(F)(F)F)cc4)cc3c21 [Example 410, (4-amino-1-methyl-1H-pyrazolo[4,3-c][1,7]naphthyridin-8-yl)((3S)-3-(4-(pentafluoroethyl)phenyl)-4-morpholinyl)methanone] |
| > 10000 | > 1000 | – | – | Nc1nc2ccc(C(=O)N3CCOCC3c3ncccn3)cc2c2c1COC2 (stereo not drawn) [Example 300, (4-amino-1,3-dihydrofuro[3,4-c]quinolin-8-yl)(3-(pyrimidin-2-yl)morpholino)methanone] |
| 13000 | 784 | – | – | Nc1nc2ccc(C(=O)N3CCOCC3c3ccc(F)c(C(F)(F)F)c3)cc2c2c1COC2 (racemic) [Example 348, (4-amino-1,3-dihydrofuro[3,4-c]quinolin-8-yl)((3R)-3-(4-fluoro-3-(trifluoromethyl)phenyl)-4-morpholinyl)methanone and (4-amino-1,3-dihydrofuro[3,4-c]quinolin-8-yl)((3S)-3-(4-fluoro-3-(trifluoromethyl)phenyl)-4-morpholinyl)methanone] |
| 60 | 6 | – | – | C[C@H]1COC[C@@H](c2ccc(C(F)(F)F)cn2)N1C(=O)c1cc2c3c(c(N)nc2cc1Cl)COC3 (racemic) [Example 301, (4-amino-7-chloro-1,3-dihydrofuro[3,4-c]quinolin-8-yl)((3R,5S)-3-methyl-5-(5-(trifluoromethyl)-2-pyridinyl)-4-morpholinyl)methanone and (4-amino-7-chloro-1,3-dihydrofuro[3,4-c]quinolin-8-yl)((3S,5R)-3-methyl-5-(5-(trifluoromethyl)-2-pyridinyl)-4-morpholinyl)methanone] |
| 688 | 40 | – | – | C[C@H]1COC[C@@H](c2ccc(C(F)(F)F)nc2)N1C(=O)c1cc2c3c(c(N)nc2cc1F)COC3 (racemic) [Example 309, (4-amino-7-fluoro-1,3-dihydrofuro[3,4-c]quinolin-8-yl)((3R,5S)-3-methyl-5-(6-(trifluoromethyl)-3-pyridinyl)-4-morpholinyl)methanone and (4-amino-7-fluoro-1,3-dihydrofuro[3,4-c]quinolin-8-yl)((3S,5R)-3-methyl-5-(6-(trifluoromethyl)-3-pyridinyl)-4-morpholinyl)methanone] |
| 6380 | 810 | – | – | Nc1nc2cnc(C(=O)N3CCOC[C@@H]3c3ccc(C(F)(F)F)cc3)cc2c2cncnc12 [Example 504, (5-aminopyrimido[4,5-c][1,7]naphthyridin-9-yl)((3S)-3-(4-(trifluoromethyl)phenyl)-4-morpholinyl)methanone] |
| 198 | 13 | – | – | Cn1ncc2c(N)nc3cc(Cl)c(C(=O)N4CCOC[C@@H]4c4ccc(C(F)(F)F)cc4)cc3c21 [Example 546, (4-amino-7-chloro-1-methyl-1H-pyrazolo[4,3-c]quinolin-8-yl)((3S)-3-(4-(trifluorometliyl)phenyl)-4-morpholinyl)methanone] |
| > 10000 | > 1000 | – | – | Cc1ccc([C@H]2COCCN2C(=O)c2cc3c4c(c(N)nc3cn2)COC4)cn1 (single isomer, unassigned) [Example 607] |
| – | – | 5830 | 151 | Nc1nc2cc(F)c(C(=O)N3CCOCC3c3ccc(OC(F)F)nc3)cc2c2c1COC2 (racemic) [Example 385, (4-amino-7-fluoro-1,3-dihydrofuro[3,4-c]quinolin-8-yl)((3R)-3-(6-(difluoromethoxy)-3-pyridinyl)-4-morpholinyl)methanone and (4-amino-7-fluoro-1,3-dihydrofuro[3,4-c]quinolin-8-yl)((3S)-3-(6-(difluoromethoxy)-3-pyridinyl)-4-morpholinyl)methanone] |
| 1130 | 43 | – | – | Nc1nc2cnc(C(=O)N3CCOC[C@@H]3c3ccc(C(F)(F)C(F)(F)F)cc3)cc2c2c1COC2 [Example 511] |
| 10200 | 420 | – | – | Nc1nc2ccc(C(=O)N3CCOC[C@@H]3c3ccc(CC(F)(F)F)cc3)cc2c2c1COC2 (single isomer, unassigned) [Example 603] |
| > 10000 | > 1000 | – | – | Nc1nc2ccc(C(=O)N3CCOC[C@H]3c3ccc(C(F)(F)F)cc3)cc2c2c1COC2 (single isomer, unassigned) [Example 455] |
